Legend:
[1] = tested on: CD34+ human peripheral blood cells transduced with Mieg3 empty vector; assay: Proliferation and survival of transduced CD34+ cells on OP-9 stroma; assay type: cell-based
Description: (§1) Cell proliferation was assessed by flow cytometry. (B) Cells were transduced and cultured as in (A) but incubated with either vehicle or IODVA1 (IO1, 1 or 3 μM) and survival (%) was determined by trypan blue exclusion. […] LDBM cells were transduced with bicistronic p190-BCR-ABL1/EGFP retrovirus and transplanted into recipient mice. After initial assessment of leukemic burden, drugs were delivered in subcutaneously implanted osmotic pumps, each lasting two weeks. (D) Kaplan-Meier survival plot of secondary mice transplants with the 10^6-cell dilution.
(§2) IODVA1 specifically targets BCR-ABL B-ALL cells in vitro. To confirm that IODVA1 is specific for oncogene-expressing cells, we tested its efficacy on the proliferation and survival of CD34^+ human peripheral blood mononuclear cells transduced with retroviral bicistronic p190-BCR-ABL or Mieg3 empty vector (Williams, 2000). As expected, expression of BCR-ABL increased cell proliferation (FIG. 10A). Treatment with IODVA1 (IO1, […]) decreased proliferation of BCR-ABL-transformed cells, while proliferation of empty vector Mieg3 transduced cells was not affected. We then assessed survival of p190-BCR-ABL-transformed CD34^+ cells in the presence of IODVA1 by trypan blue exclusion. The survival of p190-BCR-ABL expressing cells decreased in a dose-dependent manner to 60±16% (SEM, N=3) at 1 μM on day 5 and to 1±0.2% (SEM, N=3) at 3 μM on day 3 (FIG. 10B). Survival of empty vector-expressing cells was not affected by IODVA1.

[2] = tested on: CD34+ human peripheral blood cells transduced with p190-BCR-ABL; assay: as above; assay type: cell-based
Description: as §1, §2

[3] = tested on: MDA-MB-231 cells; assay: EGF-induced lamellipodia formation / F-actin staining; assay type: cell-based, human
Description: FIG. 5: Cytoskeletal changes induced by IODVA1 treatment. IODVA1 inhibits lamellipodia and circular dorsal ruffle (CDR) formation in MDA-MB-231 cells and decreases Rac activation. (A) IODVA1 inhibits EGF-induced lamellipodia formation in MDA-MB-231 cells. MDA-MB-231 cells were plated on fibronectin-coated coverslips, serum starved for 4 h, […], fixed and stained with Phalloidin Alexa Fluor 594 (F-Actin, pseudocolored red) and DAPI (nuclei, pseudocolored blue). Representative images show lamellipodia formation and enrichment of actin staining at the leading edge (white closed arrowheads) at 0 and 0.3 μM concentrations and lack of lamellipodia with rounded cell morphology at 1 and 3 μM. Note equally distributed phalloidin staining with presence of stress fibers in the cell body of the 1 and 3 μM treated-cells (white open arrowheads) indicative of stationary cells. Scale bar=10 μm. […] The percentage of cells with CDRs was counted as the number of cells with CDRs normalized to the total number of cells in the field. Around 150 cells were counted per condition per experiment. Cells with multiple CDRs were counted only once. […] Levels of active Rac (RacGTP, % of control), active Cdc42 (Cdc42GTP, % of control) and active RhoA (RhoAGTP, % of control) were quantified using ImageJ and ImageLab and show combined data as mean±s.e.m. from at least 3 independent experiments. […]

[4] = tested on: p190-BCR-ABL leukemic propagating cells; assay: Serial transplantation into secondary recipients (leukemic propagating activity); assay type: in vivo, mice; settings: week 5 post transplantation
Description: (F) Count (%) of residual leukemic (EGFP^+-BCR-ABL1) cells in peripheral blood at weeks 3 and 5 for the secondary transplant mice from FIG. 1D. (G) Kaplan-Meier survival plot of secondary mice transplants with the 0.3×10^6 cell-dilution. (H) Count (%) of residual leukemic (EGFP^+-BCR-ABL1) cells in peripheral blood at weeks 3 and 5 for the secondary transplant mice from (G). (I & J) similar to G & H but with the 0.1×10^6 cell-dilution.

OC1(c2ccccn2)N=C(Nc2nc3ccccc3[nH]2)N=C1c1ccccn1 (centres unmarked) [IODVA1, (Z)-2-((1H-benzo[d]imidazol-2-yl)imino)-4,5-di(pyridin-2-yl)-2,5-dihydro-1H-imidazol-5-ol]
proliferation [1]: not affected | survival ([1]; 1 or 3 μM): not affected | survival, trypan blue exclusion ([2]; 1 μM, day 5 (SEM, N=3)): 60±16% | survival, trypan blue exclusion ([2]; 3 μM, day 3 (SEM, N=3)): 1±0.2% | proliferation ([2]; IODVA1 (IO1, μM)): decreased | lamellipodia formation and enrichment of cortical filamentous actin ([3]; 0-3 μM for 1 h, then EGF for 30 min): inhibited | overall filamentous actin staining ([3]; EGF, wash out, then 3 μM within 30 min): qualitatively reduced | eradication of leukemic cell burden in peripheral blood of secondary transplanted mice [4]: superior to imatinib

— patent US11564913B2, “Compositions and methods for treating cancer” (Children's Hospital Medical Center, priority 2019, dated 2023)
